Measurements from paper PMC8231556, “Inhibiting Endothelial Cell Function in Normal and Tumor Angiogenesis Using BMP Type I Receptor Macrocyclic Kinase Inhibitors” (Cancers, 2021).

Experiments:
[1] = system: BMP9-induced SMAD1/5 phosphorylation; assay: Western blot of BMP9-induced SMAD1/5 phosphorylation in EA.hy926 cells; format: cell-based; settings: Homo sapiens, EA.hy 926, BMP9 1 ng/mL, 1 h, read-out: IC50 on BMP9-induced pSMAD1/5 response
Procedure: EA.hy926 cells or HUVECs were seeded in 6-well plates and starved in a serum-free medium for 4 h after reaching 80% confluence. The compounds were added 30 min prior to stimulation with the corresponding ligands. EA.hy926 cells were incubated with BMP9 (1 ng/mL), BMP6 (50 ng/mL), TGF-β2 (1 ng/mL), or vehicle control for 1 h. For HUVECs, after 4 h starvation, the cells were pre-treated with or without the indicated compounds for 30 min and subsequently stimulated with VEGF (40 ng/mL) for 10 min. The cells were harvested and lysed in radioimmunoprecipitation assay (RIPA) lysis buffer containing 1× complete protease inhibitor cocktail (11836153001, Roche, Basel, Switzerland). The protein concentration was determined using the DC protein assay kit (5000111, Bio-Rad). After adding loading buffer, the samples were boiled and proteins separated by sodium dodecyl sulfate polyacrylamide gel electrophoresis (SDS-PAGE). Proteins in the gel were transferred to polyvinylidene difluoride (PVDF) membranes (IPVH00010, Merck Millipore, Burlington, MA, USA) and immunoblotted with 1000 times diluted primary antibodies: phospho-SMAD1/5 (9516 S, Cell Signaling Technology, Leiden, The Netherlands), phospho-SMAD2 (pSMAD2, home-made), SMAD1 (6944 S, Cell Signaling Technology), SMAD2 (3103 S, Cell Signaling Technology), phospho-extracellular signal-regulated kinase/mitogen-activated protein kinase (pERK/MAPK, 4370, Cell Signaling Technology), mitogen-activated protein kinase/ERK1/2 (ERK1/2/MAPK, 9102 S, Cell Signaling Techonol), VEGFR (2479, Cell Signaling), pVEGFR (2478, Cell Signaling Technology), α/β-Tubulin (2148, Cell Signaling Technology), glyceraldehyde 3-phosphate dehydrogenase (GAPDH, MAB374, Merck Millipore). Clarity™ enhanced chemiluminescence (ECL) reagent (1705060, Bio-Rad) was used to visualize secondary antibodies conjugated to horseradish peroxidase (HRP). GAPDH or Tubulin was used as protein loading controls. […] The protein bands were quantified using ImageJ (National Institutes of Health, Bethesda, MD, USA).

ACVR1 = biological target: T1, ACVR1 (Homo sapiens, UniProt Q04771); assay: radiometric kinase profiling (33 PanQinase); format: biochemical; settings: read-out: Inhibitory effect (%) ACVR1
T1 construct: purchased Proqinase, Germany
T1 sequence (Q04771 21-509): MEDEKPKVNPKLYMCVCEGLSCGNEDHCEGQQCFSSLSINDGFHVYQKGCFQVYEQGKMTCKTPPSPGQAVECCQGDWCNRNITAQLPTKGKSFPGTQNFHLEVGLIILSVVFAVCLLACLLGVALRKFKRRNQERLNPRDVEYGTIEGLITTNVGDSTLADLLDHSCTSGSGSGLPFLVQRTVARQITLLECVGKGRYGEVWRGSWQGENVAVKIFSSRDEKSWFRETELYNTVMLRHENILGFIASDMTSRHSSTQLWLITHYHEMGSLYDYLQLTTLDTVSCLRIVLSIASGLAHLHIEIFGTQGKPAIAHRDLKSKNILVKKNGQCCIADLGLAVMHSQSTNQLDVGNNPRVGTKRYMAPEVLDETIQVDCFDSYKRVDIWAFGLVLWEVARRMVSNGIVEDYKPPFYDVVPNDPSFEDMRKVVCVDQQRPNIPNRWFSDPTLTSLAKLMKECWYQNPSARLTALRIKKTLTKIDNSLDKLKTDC
Procedure: (§1) The kinase inhibition profile of the compounds was determined by testing 96 protein kinases’ activity using a radiometric protein kinase assay (33 PanQinase® Activity Assay, Proqinase, Germany). In brief, 10 µL of non-radioactive ATP solution (in H2O), 25 µL of assay buffer/[γ-33 P]-ATP mixture, 5 µL of 0.1 μM the tested compound in 10% DMSO and 10 µL of enzyme/substrate were mixed in 96-well FlashPlatesTM (Perkin Elmer, Boston, MA, USA). The reaction was conducted at 30 °C for 60 min. To stop the reaction, 50 µL of 2% (v/v) H3PO4 was added into the protein kinase reaction cocktails. After which, with 200 µL 0.9% (w/v) NaCl twice, the incorporation of ^33 Pi (counting of “cpm”) was determined with a microplate scintillation counter (Wallac Microbeta, Boston, MA, USA). All protein kinase assays were performed using a BeckmanCoulter Biomek 2000/SL robotic system (Brea, CA, USA). The residual activity (in %) for each compound was normalized to 100% enzyme activity (untreated control) and background (negative control).

CSNK1G2 = biological target: T2, CSNK1G2 (Homo sapiens, UniProt P78368); assay: radiometric kinase profiling (33 PanQinase); format: biochemical; settings: read-out: Inhibitory effect (%) CSNK1G2
T2 construct: purchased Proqinase, Germany
Procedure: as §1

EGFR = biological target: T3, EGFR (Homo sapiens, UniProt P00533); assay: radiometric kinase profiling (33 PanQinase); format: biochemical; settings: read-out: Inhibitory effect (%) EGFR
T3 construct: purchased Proqinase, Germany
T3 sequence (P00533 25-1210): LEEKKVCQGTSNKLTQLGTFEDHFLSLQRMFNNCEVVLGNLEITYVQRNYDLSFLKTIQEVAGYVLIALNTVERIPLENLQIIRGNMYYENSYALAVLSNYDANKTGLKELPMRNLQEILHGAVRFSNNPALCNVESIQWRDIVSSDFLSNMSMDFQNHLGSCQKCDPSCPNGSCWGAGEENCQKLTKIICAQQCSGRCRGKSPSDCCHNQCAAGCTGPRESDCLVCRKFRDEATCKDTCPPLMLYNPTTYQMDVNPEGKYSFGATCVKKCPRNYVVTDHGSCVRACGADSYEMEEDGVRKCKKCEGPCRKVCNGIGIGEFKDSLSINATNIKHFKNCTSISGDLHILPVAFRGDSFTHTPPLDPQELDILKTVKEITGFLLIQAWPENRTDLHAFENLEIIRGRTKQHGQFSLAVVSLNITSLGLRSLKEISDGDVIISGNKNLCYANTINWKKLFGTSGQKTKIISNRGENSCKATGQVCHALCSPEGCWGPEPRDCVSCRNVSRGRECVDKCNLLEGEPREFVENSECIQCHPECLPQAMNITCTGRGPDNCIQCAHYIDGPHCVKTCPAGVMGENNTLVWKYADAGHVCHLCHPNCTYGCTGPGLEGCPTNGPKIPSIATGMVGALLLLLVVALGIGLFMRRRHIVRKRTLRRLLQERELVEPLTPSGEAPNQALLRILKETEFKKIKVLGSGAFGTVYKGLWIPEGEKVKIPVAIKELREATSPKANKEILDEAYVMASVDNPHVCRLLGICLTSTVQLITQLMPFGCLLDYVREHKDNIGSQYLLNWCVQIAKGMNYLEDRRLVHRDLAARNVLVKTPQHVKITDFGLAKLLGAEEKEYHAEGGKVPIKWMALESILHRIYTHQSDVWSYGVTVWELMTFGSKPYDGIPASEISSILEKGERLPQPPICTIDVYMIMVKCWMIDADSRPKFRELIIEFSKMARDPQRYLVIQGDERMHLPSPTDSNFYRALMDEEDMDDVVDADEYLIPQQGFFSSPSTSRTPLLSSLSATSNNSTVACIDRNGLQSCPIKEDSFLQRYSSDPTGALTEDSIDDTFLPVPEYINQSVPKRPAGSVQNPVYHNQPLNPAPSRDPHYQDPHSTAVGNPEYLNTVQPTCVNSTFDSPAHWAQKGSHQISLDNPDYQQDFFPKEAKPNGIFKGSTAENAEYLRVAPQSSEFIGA
Procedure: as §1

EPHA5 = biological target: T4, EPHA5 (Homo sapiens, UniProt P54756); assay: radiometric kinase profiling (33 PanQinase); format: biochemical; settings: read-out: Inhibitory effect (%) EPHA5
T4 construct: purchased ProQinase (33PanQinase Activity Assay)
T4 sequence (P54756 25-1037): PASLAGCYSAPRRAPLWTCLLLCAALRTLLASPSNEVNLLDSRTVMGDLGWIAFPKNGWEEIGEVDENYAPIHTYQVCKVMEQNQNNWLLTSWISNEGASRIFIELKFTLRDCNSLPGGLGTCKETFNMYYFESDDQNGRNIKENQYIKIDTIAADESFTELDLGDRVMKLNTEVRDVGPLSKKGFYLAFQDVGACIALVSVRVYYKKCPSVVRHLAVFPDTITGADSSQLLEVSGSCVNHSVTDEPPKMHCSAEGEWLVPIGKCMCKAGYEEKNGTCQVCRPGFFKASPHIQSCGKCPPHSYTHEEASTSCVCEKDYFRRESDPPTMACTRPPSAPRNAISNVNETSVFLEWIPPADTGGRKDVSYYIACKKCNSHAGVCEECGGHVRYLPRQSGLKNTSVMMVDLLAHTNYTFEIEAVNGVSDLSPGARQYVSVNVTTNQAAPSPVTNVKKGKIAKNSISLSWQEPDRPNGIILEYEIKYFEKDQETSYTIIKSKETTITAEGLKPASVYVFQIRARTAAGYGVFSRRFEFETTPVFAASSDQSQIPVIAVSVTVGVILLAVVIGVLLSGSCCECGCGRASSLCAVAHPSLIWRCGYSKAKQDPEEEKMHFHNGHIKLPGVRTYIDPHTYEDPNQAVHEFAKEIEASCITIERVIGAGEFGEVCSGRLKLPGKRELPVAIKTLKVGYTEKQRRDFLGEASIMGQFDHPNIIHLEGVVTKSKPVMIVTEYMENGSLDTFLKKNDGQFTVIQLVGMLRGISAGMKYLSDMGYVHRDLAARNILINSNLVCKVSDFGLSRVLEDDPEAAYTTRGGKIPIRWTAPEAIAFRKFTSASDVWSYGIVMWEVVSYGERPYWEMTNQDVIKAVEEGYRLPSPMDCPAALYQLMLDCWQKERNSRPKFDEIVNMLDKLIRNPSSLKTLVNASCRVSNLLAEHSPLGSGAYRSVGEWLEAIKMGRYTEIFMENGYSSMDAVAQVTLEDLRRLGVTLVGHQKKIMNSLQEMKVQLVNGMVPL
Procedure: as §1

KDR = biological target: T5, KDR (Homo sapiens, UniProt P35968); assay: radiometric kinase profiling (33 PanQinase); format: biochemical; settings: read-out: Inhibitory effect (%) KDR
T5 construct: purchased ProQinase (33PanQinase Activity Assay)
T5 sequence (P35968 20-1356): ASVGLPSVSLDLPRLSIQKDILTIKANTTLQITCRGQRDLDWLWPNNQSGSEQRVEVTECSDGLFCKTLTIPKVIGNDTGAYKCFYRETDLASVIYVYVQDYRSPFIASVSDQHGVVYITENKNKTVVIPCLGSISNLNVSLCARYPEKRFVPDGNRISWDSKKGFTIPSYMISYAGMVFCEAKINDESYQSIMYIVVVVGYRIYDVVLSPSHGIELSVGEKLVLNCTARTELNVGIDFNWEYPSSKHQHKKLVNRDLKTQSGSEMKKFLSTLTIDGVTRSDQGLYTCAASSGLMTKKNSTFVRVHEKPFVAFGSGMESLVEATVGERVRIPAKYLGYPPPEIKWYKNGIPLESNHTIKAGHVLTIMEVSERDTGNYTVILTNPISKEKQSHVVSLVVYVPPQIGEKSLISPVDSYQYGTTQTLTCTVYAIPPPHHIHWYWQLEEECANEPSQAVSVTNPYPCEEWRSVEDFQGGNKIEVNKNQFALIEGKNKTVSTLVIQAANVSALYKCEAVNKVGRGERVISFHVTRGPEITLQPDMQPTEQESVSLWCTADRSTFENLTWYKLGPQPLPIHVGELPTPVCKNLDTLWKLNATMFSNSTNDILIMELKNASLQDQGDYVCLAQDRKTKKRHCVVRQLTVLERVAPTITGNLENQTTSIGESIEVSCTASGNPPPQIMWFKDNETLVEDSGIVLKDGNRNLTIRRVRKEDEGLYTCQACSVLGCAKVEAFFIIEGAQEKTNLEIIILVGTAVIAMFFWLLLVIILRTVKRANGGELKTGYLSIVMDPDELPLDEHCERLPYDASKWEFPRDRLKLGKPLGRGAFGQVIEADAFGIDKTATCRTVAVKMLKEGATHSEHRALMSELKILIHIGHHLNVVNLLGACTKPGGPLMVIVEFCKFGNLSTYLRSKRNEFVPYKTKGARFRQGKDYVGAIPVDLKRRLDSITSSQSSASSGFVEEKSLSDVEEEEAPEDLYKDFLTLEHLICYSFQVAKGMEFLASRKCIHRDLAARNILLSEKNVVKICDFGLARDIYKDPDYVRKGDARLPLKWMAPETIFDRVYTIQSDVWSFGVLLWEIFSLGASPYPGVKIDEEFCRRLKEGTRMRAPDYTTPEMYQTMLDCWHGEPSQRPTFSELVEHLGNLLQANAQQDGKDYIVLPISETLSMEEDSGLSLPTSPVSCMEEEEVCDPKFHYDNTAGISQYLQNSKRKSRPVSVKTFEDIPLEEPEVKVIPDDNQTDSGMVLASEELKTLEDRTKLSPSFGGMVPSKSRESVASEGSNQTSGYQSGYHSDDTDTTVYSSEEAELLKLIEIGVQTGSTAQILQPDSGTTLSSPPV
Procedure: as §1

LCK = biological target: T6, LCK (Homo sapiens, UniProt P06239); assay: radiometric kinase profiling (33 PanQinase); format: biochemical; settings: read-out: Inhibitory effect (%) LCK
T6 construct: purchased ProQinase (33PanQinase Activity Assay)
Procedure: as §1

MAPK9 = biological target: T7, MAPK9 (Homo sapiens, UniProt P45984); assay: radiometric kinase profiling (33 PanQinase); format: biochemical; settings: read-out: Inhibitory effect (%) MAPK9
T7 construct: purchased ProQinase (33PanQinase Activity Assay)
T7 sequence (P45984 whole entry): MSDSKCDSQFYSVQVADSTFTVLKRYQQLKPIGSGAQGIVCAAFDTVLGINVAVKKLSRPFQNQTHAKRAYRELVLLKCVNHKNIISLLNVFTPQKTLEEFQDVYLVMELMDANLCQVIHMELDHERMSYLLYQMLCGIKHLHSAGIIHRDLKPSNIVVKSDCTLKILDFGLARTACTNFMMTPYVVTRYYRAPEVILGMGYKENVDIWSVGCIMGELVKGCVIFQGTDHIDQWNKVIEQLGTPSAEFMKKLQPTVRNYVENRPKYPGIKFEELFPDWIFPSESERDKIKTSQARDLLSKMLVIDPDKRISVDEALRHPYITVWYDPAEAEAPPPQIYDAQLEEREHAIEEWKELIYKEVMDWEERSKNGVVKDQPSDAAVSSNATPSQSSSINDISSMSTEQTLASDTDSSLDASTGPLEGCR
Procedure: as §1

RPS6KA1 = biological target: T8, RPS6KA1 (Homo sapiens, UniProt Q15418); assay: radiometric kinase profiling (33 PanQinase); format: biochemical; settings: read-out: Inhibitory effect (%) RPS6KA1
T8 construct: purchased ProQinase (33PanQinase Activity Assay)
T8 sequence (Q15418 whole entry): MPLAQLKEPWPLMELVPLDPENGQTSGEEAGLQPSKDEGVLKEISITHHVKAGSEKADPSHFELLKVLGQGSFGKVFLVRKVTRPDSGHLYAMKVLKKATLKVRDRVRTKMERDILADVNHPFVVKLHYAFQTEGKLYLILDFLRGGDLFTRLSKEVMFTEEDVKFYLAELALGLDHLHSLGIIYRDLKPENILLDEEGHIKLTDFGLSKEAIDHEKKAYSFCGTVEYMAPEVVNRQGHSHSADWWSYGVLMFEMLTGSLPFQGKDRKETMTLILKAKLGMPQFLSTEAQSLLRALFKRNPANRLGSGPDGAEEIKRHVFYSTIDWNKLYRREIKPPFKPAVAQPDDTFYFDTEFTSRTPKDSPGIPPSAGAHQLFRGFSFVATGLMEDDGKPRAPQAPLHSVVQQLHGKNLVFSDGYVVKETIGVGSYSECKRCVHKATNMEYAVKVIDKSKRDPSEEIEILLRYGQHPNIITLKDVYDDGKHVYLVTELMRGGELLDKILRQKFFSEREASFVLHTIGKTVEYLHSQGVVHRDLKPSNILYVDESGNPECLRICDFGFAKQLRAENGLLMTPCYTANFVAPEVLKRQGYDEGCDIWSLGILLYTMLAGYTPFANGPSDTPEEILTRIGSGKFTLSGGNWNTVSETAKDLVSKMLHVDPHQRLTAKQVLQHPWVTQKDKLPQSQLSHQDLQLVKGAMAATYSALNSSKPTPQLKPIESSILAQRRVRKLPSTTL
Procedure: as §1

Compound | IC50 [1] [nM] | inhibition at 0.1 µM (ACVR1) [%] | inhibition at 0.1 µM (CSNK1G2) [%] | inhibition at 0.1 µM (EGFR) [%] | inhibition at 0.1 µM (EPHA5) [%] | inhibition at 0.1 µM (KDR) [%] | inhibition at 0.1 µM (LCK) [%] | inhibition at 0.1 µM (MAPK9) [%] | inhibition at 0.1 µM (RPS6KA1) [%]
CN1CCC(=O)NCCNc2ccn3ncc(c3n2)-c2cccc(c2)C1 [OD29] | 430 | 92.5 | -0.5 | -8.91 | 14.8 | 37.6 | 35.6 | 5.44 | 5.09
c1ccc2c(-c3cnn4cc(-c5ccc(N6CCNCC6)cc5)cnc34)ccnc2c1 [LDN-193189, reference compound] | 110 | 67.7 | -23.1 | 2.46 | -0.32 | -6.35 | 25.4 | -21.3 | -10.4
CN1CCc2cccc(c2)Nc2nccc(n2)N2CCCc3cc(ccc32)C1 [OD16] | 80 | 90.2 | -15.6 | -13 | -65.7 | 0.8 | 6.7 | -11 | 17
